According to US6384026B1, “Macrocyclic polyamine lactones and derivatives thereof and their use as arthropod repellents” (Cornell Research Foundation, Inc., priority 1998, dated 2002):

How the values were obtained:
ants = assay: Tests with ants on pupal secretion and its tocopherol components; type: in vivo, Crematogaster cerasi; settings: E. borealis pupal secretion and components
[1] = Isomerization (O-to-N acyl transfer) on storage, analysed by HPLC-MS; type: physicochemical; settings: substantially pure samples stored at 25° C. for 2 days
[2] = system: ladybird beetles (Harmonia axyridis); assay: Deterrency bioassays with predacious insects: ladybird beetles; type: in vivo; settings: synthetic samples
Excerpt: (§1) Synthetic samples of macrocycles PAML 681, PAML 908, and PAML 1362 (structure 6 of FIG. 3, wherein m, n, o, p, q, and r=7) as well as mixtures of synthetic PAML 681 and Vitamin E acetate were used in bioassays with various predacious insects, for example, ladybird beetles (Harmonia axyridis) and ants of the genus Crematogaster.

[3] = system: ants of the genus Crematogaster; assay: Deterrency bioassays with predacious insects: ants; type: in vivo; settings: synthetic samples
Excerpt: as §1

H. axyridis adults = assay: Feeding choice bioassay with ladybird beetle (treated vs control moth eggs); type: in vivo, Harmonia axyridis; settings: choice test, moth eggs treated topically with ethyl ether solution vs ethyl ether only
Experimental: The biological activity of synthetic PAML 681 was also evaluated in a feeding bioassay with a ladybird beetle. The bioassay was a choice test in which individual H. axyridis adults were presented with two offerings of an edible food item, for example, insect eggs of the moth Uthesisia ornatrix, of which one offering was treated by topical application of an ethyl ether solution of PAML 681, while the other offering (“control”) was treated with ethyl ether only. […] Similar experiments were performed with synthetic samples of PAML 908 and PAML 1362, as well as with mixtures of PAML 681 and alpha-tocopherol acetate.

beetles (Carabidae) = assay: Feeding tests with beetles (Carabidae); type: in vivo
[4] = system: Periplaneta americana (American cockroach); assay: Irritancy tests with cockroaches; type: in vivo

| monoamide formed (relative percentage of the total ion current) [1] [%] | SMILES | deterrency in tests with ants (ants) | activity as insect deterrent [2] | activity as insect deterrent [3] | antifeedant activity (H. axyridis adults) | insect repellent and deterrent activity (beetles (Carabidae)) | insect repellent and deterrent activity (irritancy) [4] |
| --- | --- | --- | --- | --- | --- | --- | --- |
|  | CC(=O)Oc1c(C)c(C)c2c(c1C)CCC(C)(CCC[C@H](C)CCC[C@H](C)CCCC(C)C)O2 (some centres unmarked) [vitamin E acetate, Vitamin E acetate] | essentially inactive |  |  |  |  |  |
| 10 | CC1CCCCCCCCC(=O)OCCNC(C)CCCCCCCCC(=O)OCCNC(C)CCCCCCCCC(=O)OCCNC(C)CCCCCCCCC(=O)OCCN1 (centres unmarked) [PAML 908] |  | highly active as insect deterrents | highly active as insect deterrents | strong antifeedant activity |  |  |
| 7 | CC1CCCCCCCCC(=O)OCCNC(C)CCCCCCCCC(=O)OCCNC(C)CCCCCCCCC(=O)OCCN1 (centres unmarked) [PAML 681] |  | highly active as insect deterrents | highly active as insect deterrents | strong antifeedant activity | strong insect repellent and deterrent | strong insect repellent and deterrent |
